Reference: patent publication US20230141887A1, “CRYSTAL FORM OF DIAZASPIROPYRAN COMPOUND” (MEDSHINE DISCOVERY INC., priority 2020, published 2023)
Counter-ions that a name gives are not always drawn.

Molecular target: T1, AXL (Homo sapiens, UniProt P30530)
T1 construct: purchased Promega
T1 sequence (P30530 26-894): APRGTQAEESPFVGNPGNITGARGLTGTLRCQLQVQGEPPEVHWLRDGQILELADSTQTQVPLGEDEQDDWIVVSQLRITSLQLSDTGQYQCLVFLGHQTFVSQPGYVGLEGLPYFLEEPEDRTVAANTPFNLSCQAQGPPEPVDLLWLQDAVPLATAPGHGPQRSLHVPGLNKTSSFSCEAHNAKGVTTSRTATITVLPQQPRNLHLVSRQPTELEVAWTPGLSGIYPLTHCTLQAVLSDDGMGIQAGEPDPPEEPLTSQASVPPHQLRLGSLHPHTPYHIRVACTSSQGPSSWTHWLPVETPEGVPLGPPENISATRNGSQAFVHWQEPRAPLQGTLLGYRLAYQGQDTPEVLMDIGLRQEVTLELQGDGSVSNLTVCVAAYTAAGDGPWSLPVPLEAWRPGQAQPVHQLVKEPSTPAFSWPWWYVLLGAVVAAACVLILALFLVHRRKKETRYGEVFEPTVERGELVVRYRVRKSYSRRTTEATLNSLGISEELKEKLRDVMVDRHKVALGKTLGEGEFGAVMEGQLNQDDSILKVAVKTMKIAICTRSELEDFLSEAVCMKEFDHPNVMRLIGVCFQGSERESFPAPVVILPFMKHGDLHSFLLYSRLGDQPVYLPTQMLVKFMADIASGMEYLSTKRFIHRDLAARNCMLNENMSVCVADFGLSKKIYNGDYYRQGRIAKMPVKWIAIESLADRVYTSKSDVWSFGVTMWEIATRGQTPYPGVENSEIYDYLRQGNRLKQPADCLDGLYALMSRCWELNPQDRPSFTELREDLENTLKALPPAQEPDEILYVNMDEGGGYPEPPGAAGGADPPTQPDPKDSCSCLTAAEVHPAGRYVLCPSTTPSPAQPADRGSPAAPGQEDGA
Test: Assay of AXL inhibitory activity in vitro (Promega AXL Kinase Enzyme System, ADP-Glo)
Type: biochemical
Details: 50 μmol/L ATP, 30° C., 60 minutes
Method: AXL Kinase Enzyme System (kinase system) was purchased from Promega. Envision multi-label Analyzer (PerkinElmer).
The enzyme, substrate, ATP and inhibitors were diluted using the buffer solution in the kit.
The assay was carried out in duplicate. 1 μl of the inhibitors of each concentration gradient, 2 μl of the AXL enzyme (6 ng), and a 2 μl mixture of the substrate and ATP (50 μmol/L ATP, 0.2 μg/μL Axltide) were added to the microplate. […] After the reaction was completed, 5 μL of ADP-Glo reagent was added to each well. The system was further reacted at 30° C. for 40 minutes. After the reaction was completed, 10 μL of kinase detection reagent was added to each well and reacted at 30° C. for 30 minutes. The chemiluminescence was then read by the PerkinElmer Envision multi-label analyzer with an integration time of 0.5 seconds.
The original data was converted into an inhibition rate, and the IC50 value can be obtained by four-parameter curve fitting.

IC50: 5.76 nM
Structure (SMILES): CCc1nc(C(N)=O)c(Nc2ccc(N3CCC4(CCN(C)CC4)CC3)c(OC)c2)nc1NC1CCOCC1 [Trifluoroacetate salt of compound A, reference compound]
